Measurements published in patent US10624875B2, “Methods and compositions for treating schizophrenia” (The Johns Hopkins University, priority 2012, dated 2020).
Several values for one entry are separate records, joined by “and”; a condition that tells them apart may be missing. Identical values can stand only once.

Legend:
MAM-treated rats [1] = conditions: administered systemically and directly infused into the ventral HPC; cited from earlier work
HPC neurons = conditions: saline-treated and MAM-treated animals; cited from earlier work
MAM-treated rats [2] = conditions: cited from earlier work
aged-impaired (AI) rats = experiment: eight-arm Radial Arm Maze (RAM) task with one-hour delay, spatial memory retention; assay type: in vivo, rat; conditions: drug on its own (levetiracetam i.p., valproate subcutaneous)
Procedure: The effects of levetiracetam on the spatial memory retention of aged-impaired (AI) rats were assessed in a Radial Arm Maze (RAM) behavioral task using vehicle control and five different dosage levels of levetiracetam (1.25 mg/kg/day, 2.5 mg/kg/day, 5 mg/kg/day, 10 mg/kg/day and 20 mg/kg/day). RAM behavioral tasks were preformed on ten AI rats. All six treatment conditions were tested on all ten rats, as described above for the MWM test. The RAM apparatus used consisted of eight equidistantly-spaced arms. An elevated maze arm (7 cm width×75 cm length) projected from each facet of an octagonal center platform (30 cm diameter, 51.5 cm height). Clear side walls on the arms were 10 cm high and were angled at 65° to form a trough. A food well (4 cm diameter, 2 cm deep) was located at the distal end of each arm. Froot Loops™ (Kellogg Company) were used as rewards. Blocks constructed of Plexiglas™ (30 cm height×12 cm width) could be positioned to prevent entry to any arm. Numerous extra maze cues surrounding the apparatus were also provided. The AI rats were initially subjected to a pre-training test (Chappell et al. Neuropharmacology 37: 481-487, 1998). The pre-training test consisted of a habituation phase (4 days), a training phase on the standard win-shift task (18 days) and another training phase (14 days) in which a brief delay was imposed between presentation of a subset of arms designated by the experimenter (e.g., 5 arms available and 3 arms blocked) and completion of the eight-arm win-shift task (i.e., with all eight arms available). In the habituation phase, rats were familiarized to the maze for an 8-minute session on four consecutive days. In each of these sessions food rewards were scattered on the RAM, initially on the center platform and arms and then progressively confined to the arms. After this habituation phase, a standard training protocol was used, in which a food pellet was located at the end of each arm. Rats received one trial each day for 18 days. Each daily trial terminated when all eight food pellets had been obtained or when either 16 choices were made or 15 minutes had elapsed. After completion of this training phase, a second training phase was carried out in which the memory demand was increased by imposing a brief delay during the trial. At the beginning of each trial, three arms of the eight-arm maze were blocked. Rats were allowed to obtain food on the five arms to which access was permitted during this initial ‘information phase’ of the trial. Rats were then removed from the maze for 60 seconds, during which time the barriers on the maze were removed, thus allowing access to all eight arms. Rats were then placed back onto the center platform and allowed to obtain the remaining food rewards during this ‘retention test’ phase of the trial. The identity and configuration of the blocked arms varied across trials. The number of “errors” the AI rats made during the retention test phase was tracked. An error occurred in the trial if the rats entered an arm from which food had already been retrieved in the pre-delay component of the trial, or if it re-visited an arm in the post-delay session that had already been visited. After completion of the pre-training test, rats were subjected to trials with more extended delay intervals, i.e., a one-hour delay, between the information phase (presentation with some blocked arms) and the retention test (presentation of all arms). […]

In the case of `C#Cc1ccc2c(c1)C(c1ccccc1F)=N[C@H](C)c1c(C(=O)OCC)ncn1-2` [SH-053-2′F—R—CH3], the “number of spontaneously active DA neurons in the ventral tegmental area (VTA)” value (MAM-treated rats [1]) is given as “reduces the number of spontaneously active DA neurons”, the “cortical-evoked responses of HPC neurons” value (HPC neurons) is given as “diminished cortical-evoked responses” and the “increased locomotor response to amphetamine” value (MAM-treated rats [2]) is given as “is reduced”.
With `CCCC(CCC)C(=O)O` [Valproate] the “dose effective in reducing the number of errors” value (aged-impaired (AI) rats) was 100 mg/kg and the “dose not effective in reducing the number of errors” value (aged-impaired (AI) rats) was 25 mg/kg and 50 mg/kg.
